Measurements: article PMC10632401, “Cell-free biosynthesis combined with deep learning accelerates de novo-development of antimicrobial peptides” (Nature Communications, 2023)
Converted amounts (≈) assume the structure as drawn. Residues, ends and D or L forms follow the SMILES beside them. No end group written: not given here.

How the values were obtained:
[1] = tested on: E. faecium (isolate from the gut of the cow); conditions: 20 h
K. pneumoniae DSM 30104 = conditions: DSM 30104, 20 h
E. coli MG1655 = conditions: MG1655, 20 h
[2] = tested on: A. baumannii (isolate from the human abdominal wall); conditions: 20 h
B. subtilis PY79 = conditions: PY79, 20 h
P. aeruginosa DSM 1117 = conditions: DSM 1117, 20 h
in vitro = conditions: human

Row | Compound | MIC E. faecium [1] [µM] | MIC K. pneumoniae (K. pneumoniae DSM 30104) [µM] | E. coli MIC (E. coli MG1655) [µM] | MIC A. baumannii [2] [µM] | B. subtilis MIC (B. subtilis PY79) [µM] | MIC P. aeruginosa (P. aeruginosa DSM 1117) [µM] | CC50 at 24 h (in vitro) [µM] | CC50 (in vitro) [µM]
1 | CC[C@H](C)[C@H](NC(=O)CNC(=O)[C@@H](N)CCSC)C(=O)NCC(=O)N[C@@H](CCCCN)C(=O)N[C@@H](Cc1ccccc1)C(=O)N[C@@H](CCC(N)=O)C(=O)N[C@@H](CCCCN)C(=O)N[C@@H](CCSC)C(=O)N[C@@H](CCCNC(=N)N)C(=O)N[C@@H](Cc1ccccc1)C(=O)N[C@H](C(=O)NCC(=O)N[C@@H](C)C(=O)N[C@H](C(=O)N[C@@H](CCCNC(=N)N)C(=O)N[C@@H](C)C(=O)N[C@@H](CO)C(=O)N[C@@H](CCCCN)C(=O)NCC(=O)N[C@H](C(=O)N[C@@H](C)C(=O)N[C@@H](CCCCN)C(=O)NCC(=O)N[C@@H](CC(C)C)C(=O)N[C@@H](CC(C)C)C(=O)N[C@@H](CCCNC(=N)N)C(=O)N[C@H](C(=O)N[C@@H](C)C(=O)N[C@@H](C)C(=O)N[C@H](C(=O)N[C@@H](CCCNC(=N)N)C(=O)N[C@H](C(=O)NCC(=O)N[C@@H](CCCNC(=N)N)C(=O)N[C@@H](CCCNC(=N)N)C(=O)N[C@@H](C)C(=O)N[C@@H](CC(C)C)C(=O)N[C@H](C(=O)N[C@H](C(N)=O)[C@@H](C)O)[C@@H](C)O)[C@@H](C)O)[C@@H](C)CC)[C@@H](C)CC)C(C)C)[C@@H](C)CC)[C@@H](C)CC [AMP #21] (H-MGIGKFQKMRFIGAIRASKGVAKGLLRIAAIRTGRRALTT-NH2) | 6.3 (≈ 27.2 µg/mL) | 25.0 (≈ 108 µg/mL) | 10.4 | 0.8 (≈ 3.45 µg/mL) | 0.5 | 12.5 (≈ 53.9 µg/mL) | > 250 | –
2 | CC[C@H](C)[C@H](NC(=O)[C@H](CO)NC(=O)[C@H](CO)NC(=O)[C@H](CO)NC(=O)[C@H](CCCNC(=N)N)NC(=O)[C@@H](NC(=O)[C@H](CO)NC(=O)[C@@H](N)CCSC)[C@@H](C)O)C(=O)N[C@@H](CCCNC(=N)N)C(=O)N[C@@H](CCCNC(=N)N)C(=O)N[C@@H](CC(C)C)C(=O)N[C@H](C(=O)N[C@@H](CCC(=O)O)C(=O)N[C@@H](C)C(=O)N[C@H](C(=O)N[C@@H](CCCNC(=N)N)C(=O)N[C@H](C(=O)N[C@@H](CCCNC(=N)N)C(=O)N[C@@H](Cc1ccccc1)C(=O)N[C@@H](CCCNC(=N)N)C(=O)N[C@@H](C)C(=O)N[C@@H](C)C(=O)N[C@@H](CC(C)C)C(=O)N[C@@H](CCCNC(=N)N)C(=O)N[C@H](C(=O)N[C@H](C(=O)N[C@@H](CC(C)C)C(=O)N[C@@H](Cc1ccccc1)C(=O)N[C@@H](Cc1ccccc1)C(=O)N[C@@H](C)C(=O)N[C@@H](CC(C)C)C(=O)N[C@@H](CCCNC(=N)N)C(=O)N[C@H](C(=O)N[C@H](C(=O)N[C@@H](CCCCN)C(=O)N[C@@H](CCCNC(=N)N)C(=O)N[C@@H](CCCNC(=N)N)C(=O)N1CCC[C@H]1C(=O)N[C@@H](CCCNC(=N)N)C(=O)N[C@@H](CCCNC(=N)N)C(N)=O)[C@@H](C)O)[C@@H](C)O)C(C)C)[C@@H](C)O)[C@@H](C)O)C(C)C)C(C)C [AMP #23] (H-MSTRSSSIRRLVEAVRTRFRAALRTVLFFALRTTKRRPRR-NH2) | – | – | 20.8 | – | 1.6 | – | – | 79.1
3 | CC[C@H](C)[C@H](NC(=O)[C@H](CCCNC(=N)N)NC(=O)[C@H](CCCNC(=N)N)NC(=O)[C@@H](NC(=O)[C@H](C)NC(=O)[C@H](CCC(=O)O)NC(=O)[C@H](CCCCN)NC(=O)[C@H](CCCNC(=N)N)NC(=O)[C@H](CO)NC(=O)[C@H](CCCNC(=N)N)NC(=O)[C@H](CC(C)C)NC(=O)[C@@H](NC(=O)[C@H](CC(N)=O)NC(=O)[C@H](CCCNC(=N)N)NC(=O)[C@@H](NC(=O)[C@H](CCCCN)NC(=O)[C@H](CCSC)NC(=O)[C@@H](N)CCSC)[C@@H](C)CC)[C@@H](C)O)C(C)C)C(=O)N[C@@H](Cc1ccccc1)C(=O)N[C@@H](CO)C(=O)N[C@@H](CC(C)C)C(=O)N[C@@H](CCCNC(=N)N)C(=O)N[C@@H](CCCNC(=N)N)C(=O)N[C@@H](CCCNC(=N)N)C(=O)N[C@@H](CO)C(=O)N[C@H](C(=O)N[C@@H](Cc1ccccc1)C(=O)N[C@H](C(=O)N[C@@H](CCC(=O)O)C(=O)N[C@@H](CCSC)C(=O)N[C@@H](C)C(=O)N[C@@H](CCCNC(=N)N)C(=O)N[C@@H](C)C(=O)N[C@@H](Cc1ccccc1)C(=O)N[C@@H](CCCNC(=N)N)C(=O)N[C@@H](CCCNC(=N)N)C(=O)N[C@@H](Cc1ccccc1)C(=O)N[C@@H](CCCCN)C(=O)N[C@@H](C)C(=O)N[C@@H](CCCNC(=N)N)C(N)=O)[C@@H](C)O)C(C)C [AMP #28] (H-MMKIRNTLRSRKEAVRRIFSLRRRSVFTEMARAFRRFKAR-NH2) | 3.1 (≈ 15.6 µg/mL) | 12.5 (≈ 62.9 µg/mL) | 25.0 | 1.6 (≈ 8.05 µg/mL) | 0.4 | 25.0 (≈ 126 µg/mL) | 145 | –
4 | H-MWFDRKKFFWPGVCLFLLFFPKRFYKKGPEKVFSFRKKYKFARKCKCKL-NH2 (cysteines drawn unpaired) [AMP #12] | 12.5 | 25.0 | – | – | – | 25.0 | – | –
5 | MAIRIIGRLARVRARVVARVRSRLLADDPPEDLLRVARRRKGRRWLFLS-NH2 [AMP #24] | 6.3 | – | 25.0 | – | 1.6 | – | 91.7 | –
6 | MGWWFPPKTGNGAGKAFKKAAAAKWGGLFLKAAWFANKGEWGGGFPKGY-NH2 [AMP #9] | 6.3 | 25.0 | 25.0 | – | 3.1 | – | 146 | –
7 | MKAKKWFESLFKTFFKKGKGIYPKSSFEKEKKTDKKKKFGGWVWFKK-NH2 [AMP #16] | 1.6 | 2.4 | 6.3 | 1.6 | 0.8 | 12.5 | 39.3 | –
8 | MKKKKKGILKQNNKKKKYTLFNRMVVFLFLGFIMIIFVQKYKKVIYHK-NH2 [AMP #29] | – | – | 12.5 | – | 6.3 | – | > 250 | –
9 | MKLRRRLRTRMVALLVLGVLFLLMLFFIIFLRRMLMRRFRA-NH2 [AMP #26] | – | – | 100.0 | – | 37.5 | – | – | > 250
10 | MLFGSRAKKYGKEAKQEKSFQYPKSSFVACKKKWKRSKHFFKTFKKKVS-NH2 [AMP #1] | – | – | > 100 | – | 0.8 | – | 113 | –
11 | MNNRGPLGRRFKARRKWKKFVAGKMKKKRKRFKGFKKKGGFTPFVKKFV-NH2 [AMP #3] | 1.6 | – | 12.5 | 6.3 | 0.8 | – | 68 | –
12 | MNTTSNMIHRAVQQKRISFRAAKLTVLFLFKRRLLRRLLRHHEN-NH2 [AMP #27] | 1.6 | 6.3 | 12.5 | 2.4 | 0.4 | 12.5 | 75.7 | –
13 | MRNFFKKTRLKYKGKKELIKKSRAFGLKTKKRSGFFFPRALKYEEEFY-NH2 [AMP #7] | – | – | > 100 | – | 1.6 | – | 133 | –
14 | MWIKWKKPRKWGRRLKKKEKEELGDYIYLYCKVYRLFGFLPYFISKKTA-NH2 [AMP #17] | 6.3 | – | 12.5 | 6.3 | 6.3 | – | 134 | –
15 | MYLKKFLALKNSLKKLSPFKCAVKSWLKKCAEVTFYSKLLGRRGKKDGN-NH2 (cysteines drawn unpaired) [AMP #6] | 6.3 | 12.5 | 25.0 | 6.3 | 2.1 | 25.0 | 67.5 | –
